Measurements published in US20120059009A1, “ANTI-TUMOR AGENT CONTAINING TEGAFUR-GIMERACIL-OTERACIL POTASSIUM COMBINATION DRUG AND OXALIPLATIN” (TAIHO PHARMACEUTICAL CO., LTD., priority 2009, published 2012).
Read-outs that look alike come from different tables or passages of the source.

How the values were obtained:
[1] = system: human colorectal cancer COL-1; test: Anti-tumor effect (IR) in human colorectal cancer COL-1 xenograft model; format: in vivo, male nude mice (BALB/cA-nu); details: in the combination S-1 7 mg/kg, l-OHP 4.2 mg/kg
Protocol: A fragment (about 2 mm diameter) of human colorectal cancer COL-1 was transplanted into the right axilla of each of male nude mice (BALB/cA-nu, 4-week old, purchased from CLEA Japan, Inc.), and the tumor volume ((longer diameter)×(shorter diameter)^2/2) of the mouse was calculated. The mice were allocatedinto groups so that the average tumor volumes of the groups were adjusted to about 220 mm^3 (8 mice/group). Drug administration was started on the next day after the day of grouping (Day 0). […] TSU-68 was orally administered once a day at a dose of 200 or 400 mg/kg/day from Day 1 to Day 28. A group to which no drug was administered was set as a control group. During drug administration, the tumor volume of each mouse was measured every 3 to 4 days, and the relative tumor volume (RTV) and the anti-tumor effect (IR (%)) of each group were calculated by the formulas below. The statistical significance of difference of the anti-tumor effect between drug-administration group and control group was analyzed by the Student's t-test (both sides) using the average RTV value of these groups. A P value of p<0.05 was considered statistically significant. Furthermore, the advantage in anti-tumor effect (augmentation effect) of the S-1/l-OHP/TSU-68 combination group, with respect to each of the control group, the S-1/l-OHP combination group and the TSU-68 single administration group, was statistically analyzed through the IUT test. […] Relative tumor volume (RTV)=(Tumor volume on Day N)/(Tumor volume on Day 1) [F1] Anti-tumor effect (IR(%))=[1−(RTV of drug-administration group)/(RTV of control group)]×100

[2] = system: metastatic colorectal cancer patients; format: in vivo, human
Protocol: The safety of the case where metastatic colorectal cancer patients (9 cases) were subjected to l-OHP and S-1 combination therapy with administration of TSU-68 was examined. In this study, one cycle of the treatment was consisted of 21 days. To each patient, l-OHP was intravenously administered at a dose of 130 mg/m^2 (per body surface area) on Day 1, and S-1 was orally administered, twice a day after meal, at a daily dose (in terms of tegafur) of 70 mg/m^2 (per body surface area) from Day 1 to Day 14. The 7 days from Day 15 to Day 21 were placed as a rest period. TSU-68 was orally administered every day, twice a day after meal, at a daily dose of 400 mg to 800 mg.
The above study was carried out in order to determine the recommended dose (RD) of TSU-68 in the case where l-OHP and S-1 combination therapy, whose efficacy to colorectal cancer had been established, may be carried out in combination with administration of TSU-68, without causing adverse side effects.
The safety was evaluated according to NCI-CTCAE (3rd edition, the National Cancer Institute's Common Terminology Criteria for Adverse Events version 3.0).

recommended dose (RD) of TSU-68 in the combination therapy ([2]; human, in vivo, 21 days): 400 mg
SMILES: Cc1[nH]c(/C=C2\C(=O)Nc3ccccc32)c(C)c1CCC(=O)O [TSU-68, 3-[2,4-dimethyl-5-[[(Z)-2,3-dihydro-2-oxo-1H-indol-3-ylidene]methyl]-1H-pyrrol-3-yl]propanoic acid]
IR (%) Day 15 ([1]; TSU-68 200 mg/kg/day p.o.): 47.5%
IR (%) Day 15 ([1]; TSU-68 400 mg/kg/day p.o.): 51.4%
IR (%) Day 22 ([1]; TSU-68 200 mg/kg/day p.o.): 47.8%
IR (%) Day 22 ([1]; TSU-68 400 mg/kg/day p.o.): 46.3%
IR (%) Day 29 ([1]; TSU-68 200 mg/kg/day p.o.): 49.2%
IR (%) Day 29 ([1]; TSU-68 400 mg/kg/day p.o.): 52.8%
anti-tumor effect, 400 mg group versus 800 mg group ([2]; TSU-68 400 or 800 mg daily with l-OHP and S-1): almost equivalent
dose-limiting toxicity (DLT) ([2]; human, in vivo, 21 days): dose-limiting toxicity (DLT) including singultus and skin response in the hands and feet (Grade 3) or neutropenia (Grade 2) was observed
dose-limiting toxicity (DLT) ([2]; in vivo): no DLT was observed
